TGI data for 27 compounds are collected here from PubChem BioAssay (NCI).

Holding throughout (test): NCI tumour cell line growth inhibition, 48 h
For test [1], the system named is NCI/ADR-RES ovarian.
Test [2] relates to A498 renal.
Test [3] concerns SK-MEL-2 melanoma.
Test [4] deals with SK-MEL-28 melanoma.
Test [5] relates to HOP-62 NSCLC.
The subject of test [6] is DU-145 prostate.
The test system of test [7] is SK-OV-3 ovarian.
Test [8] has as its system OVCAR-8 ovarian.
The test system of test [9] is UACC-62 melanoma.
For test [10], the system named is HCT-15 colon.

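Protocol summary: plate cells (96-well), add compound at 5 concentrations, incubate 48 h, interpolate endpoints linearly. The concentration for full growth arrest is given as TGI.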 Where a SMILES comes first, the peptide text is derived from it. [ ]: non-standard residue; d: D form. The star is where a group is joined. hSer = N[CH](CCO)C(=O)O; Boc = CC(C)(C)OC(=O)*

With `N#Cc1[nH]c(=O)n(-c2ccc([N+](=O)[O-])cc2)c1N`, the TGI in test [1], in test [2], in test [3], in test [4], in test [5] and in [6] was over 10 µM in each case. For the same compound, the TGI in test [7], in test [8], in test [9] and in test [10] was over 10 µM each time.

Regarding `CC12CC3c4ccccc4CN1C3(c1ccccc1)OC2=O` (stereo not given), the TGI in [1], in [2], in [3], in [4], in test [5] and in test [6] was over 100 µM in each case. The TGI in [7], in [8], in test [9] and in [10] was over 100 µM throughout.

Consider `O=C(CCSC(CC(=O)c1ccc(Cl)cc1)c1ccc(Cl)cc1)Nc1ccc(Cl)cc1` (stereo not given), for which the TGI in test [1] is 40.2 µM; in [2], 25.1 µM; in test [3], 28.9 µM; in [4], 29.4 µM; in test [5], 29.1 µM; in test [6] it was 27 µM. Also, the TGI was found to be 42.3 µM in test [7], 29.1 µM in test [8], 21.9 µM in test [9] and 24.2 µM in test [10].

Take `CCOC(=O)c1cc2cc(Cc3ccc4[nH]c(C(=O)OCC)cc4c3)ccc2[nH]1`: the TGI in [1] was 52.6 µM; in test [2], 36.4 µM; in test [3], 81.1 µM; in [4], over 100 µM; in [5], 23 µM; in test [6] it was over 100 µM. Besides, the TGI in test [7] was 55.4 µM; in [8] it was 23.6 µM; in test [9] it was 36.3 µM; in [10] it was over 100 µM.

For the compound `COc1ccc(NC(=S)NN=C(C)c2cccc(C(C)=NNC(=S)Nc3ccc(OC)cc3)n2)cc1`, the TGI in test [1], in test [2], in test [3], in test [4], in test [5] and in test [6] was over 100 µM throughout. In addition, the TGI in test [7], in test [8], in [9] and in [10] was over 100 µM throughout.

As to `C1=C2SSC3=CC=C(SSc4ccc(s4)SSC4=CC=C(SSC(=C1)S2)S4)S3`, the TGI in [1], in test [2], in test [3], in test [4], in test [5] and in test [6] was over 100 µM in each case. In addition, the TGI in test [7], in test [8] and in test [10] was over 100 µM in each case.

For `C/C(=N\Nc1nc2cc(C)ccc2s1)c1ccccn1`, the TGI in [1] turned out to be 0.844 µM; in [2], 10.6 µM; in test [3], 1.35 µM; in test [4], 12.1 µM; in test [5], 3.62 µM; in test [6], 5.65 µM. The values for the TGI in test [7], in test [8] and in test [10] were 43.1 µM, 12.1 µM and 30.3 µM, respectively.

`O=C1CC(NC(=O)C(F)(F)F)c2c(Br)sc(N3CCC(c4ccccc4)CC3)c21` (stereo not given): the TGI in test [1], in test [2], in [3], in test [6], in test [7] and in test [8] was over 100 µM throughout. The TGI in [9] and in [10] was over 100 µM in each case.

`COc1ccc(-n2sc3ncc(-c4ccccc4)cc3c2=O)cc1`: the TGI in [1], in [2], in [3], in test [4], in test [5] and in [6] was over 100 µM throughout. The TGI in test [7], in [8], in test [9] and in test [10] was over 100 µM throughout.

With `COc1ccc(-n2c(CCCC(=O)O)nc3c2C(=O)c2ccccc2C3=O)cc1`, the TGI in [1], in test [2], in test [3], in test [4], in test [6] and in test [7] was over 100 µM in each case. The TGI in test [8], in test [9] and in test [10] was over 100 µM each time.

Consider `N#CI1OC(=O)c2ccccc21`, for which the TGI in [1], in test [2], in [3], in test [4], in test [5] and in test [6] was over 100 µM in each case. In addition, the TGI in test [7], in [8], in test [9] and in test [10] was over 100 µM throughout.

Take `O=c1cnn(C2OC(CO)C(O)C(F)C2O)c(=O)[nH]1` (stereo not given): the TGI in [1], in test [2], in test [3], in [4], in test [6] and in test [7] was over 100 µM each time. Moreover, the TGI in test [8], in [9] and in test [10] was over 100 µM in each case.

Regarding `C=C(NC(=O)C(=C)NC(=O)c1csc(C2=NC3c4csc(n4)C4NC(=O)c5csc(n5)C(C(C)(O)C(C)O)NC(=O)C5CSC(=N5)/C(=C/C)NC(=O)C(C(C)O)NC(=O)c5csc(n5)C3(CC2)NC(=O)C(C)NC(=O)C(=C)NC(=O)C(=C)NC(=O)C(C(C)C)NC2C=Cc3c(C(C)O)cc(nc3C2O)C(=O)OC4C)n1)C(N)=O` (stereo not given), the TGI was over 100 µM in test [1]; 16.5 µM in test [2]; over 38.9 µM in [3]; over 62.1 µM in test [4]; over 100 µM in [5]; over 72.4 µM in test [6]. In addition, the TGI in [7] is over 63.4 µM; in test [8], 8.75 µM; in [9], 4.15 µM; in [10], over 63.4 µM.

Regarding `N/C(CC/C(N)=N\O)=N\O`, the TGI in test [1], in [2], in test [3], in [4], in [5] and in test [6] was over 100 µM each time. Also, the TGI in test [9] and in test [10] was over 100 µM each time.

For `COC1/C=C\C=C(/C)C(=O)NC2=CC(=O)C(NCCCl)=C(CC(C)CC(OC)C(O)C(C)/C=C(/C)C1OC(N)=O)C2=O` (stereo not given), the TGI in test [1] stood at 31.1 µM; in test [2], 4.55 µM; in test [3] it was 2.15 µM; in [4], 2.52 µM; in [5] it was 5.91 µM; in test [6], 11.4 µM. The TGI in test [7] was 2.11 µM; in test [8], 10.5 µM; in test [9], 1.33 µM; in test [10], 2.77 µM.

Take `COCCC(NC(=O)C(CC(C)C)NC(=O)OC(C)(C)C)C(N)=O` (stereo not drawn) (Boc-Leu-[hSer](Me)-NH2; configuration not given here): the TGI in test [1], in test [2], in test [3], in [4], in test [5] and in test [6] was over 100 µM in each case. Also, the TGI in test [7], in test [8], in test [9] and in [10] was over 100 µM throughout.

On to `COc1ccc(C2CC(c3cc4c(C)c(C(=O)c5ccccc5)oc4cc3O)=Nc3ccccc3S2)cc1OC` (stereo not given), for which the TGI in test [1] was over 100 µM; in test [2], over 87 µM; in test [3] it was over 100 µM; in test [4] it was over 100 µM; in [5] it was over 34.3 µM; in [6], over 100 µM. In addition, the values for the TGI in [8], in [9] and in [10] were over 100 µM, over 85.8 µM and over 100 µM, respectively.

With `CC(=O)N[C@@H](Cc1ccc(O)cn1)C(=O)NCc1cccc(F)c1`, the TGI in test [1], in test [2], in [3], in [4], in [5] and in [6] was over 100 µM in each case. Also, the TGI in test [7], in test [9] and in test [10] was over 100 µM each time.

As for `CCOC(=O)CC(C)C(C#N)(OP1(=O)OC(c2ccccc2)C(C)N1C)c1ccccc1` (stereo not given), the TGI in test [1], in test [2], in test [3], in test [4], in [5] and in test [6] was over 100 µM throughout. Moreover, the TGI in test [7], in test [8], in test [9] and in test [10] was over 100 µM in each case.

Turning to `Cc1cc(-c2ccc(C(=O)C(Cl)(Cl)Cl)[nH]2)on1`, the TGI in test [1] is 94.3 µM; in test [2] it was over 100 µM; in test [3], 66.7 µM; in [4], over 100 µM; in test [5], 24.8 µM; in test [6], 39.6 µM. Further, the TGI in [7], in [8], in [9] and in test [10] was over 100 µM each time.

As to `c1ccc(COc2ccc(C[P+](c3ccccc3)(c3ccccc3)c3ccccc3)cc2)cc1`, the TGI in test [1] was found to be 49.1 µM; in test [2], 5.51 µM; in test [3] it was 0.727 µM; in test [4], 5.04 µM; in [5], 3.37 µM; in test [6] it was 12.9 µM. For the same compound, the TGI in test [7] came to 3.42 µM; in test [8] it was 2.18 µM; in test [9] it was 1.74 µM; in [10], 13.6 µM.

For the compound `CN(C)CC1CCC/C(=C\c2ccc(N(C)C)cc2)C1=O` (stereo not given), the TGI in test [1] turned out to be 65.3 µM; in test [2], 30.9 µM; in test [3], 22.3 µM; in test [4], 19.1 µM; in test [5], 33 µM; in [6] it was 34 µM. For the same compound, the TGI is 31.7 µM in test [7], 18 µM in test [8], 29.2 µM in test [9] and 16.1 µM in test [10].

For `O=S(=O)(O)c1cc(Cl)c(O)c2ncc(Cl)cc12`, the TGI in [1], in test [2], in [3], in test [4], in test [5] and in test [6] was over 100 µM each time. Moreover, the TGI in [8], in test [9] and in test [10] was over 100 µM each time.

Turning to `COc1ccc(C[C@@H]2CN(C(=O)c3ccccc3)[C@H](Cc3ccc(O)cc3)CN2C(=O)c2ccccc2)cc1Br`, the TGI in [1], in test [2], in [3], in [4], in [5] and in [6] was over 100 µM throughout. Besides, the TGI in test [7], in test [8] and in [10] was over 100 µM throughout.

For the compound `NCCC1(N)CCNCC1`, the TGI in [1], in test [2], in test [3], in test [4], in [6] and in test [7] was over 100 µM each time. Also, the TGI in [8], in test [9] and in test [10] was over 100 µM throughout.

For the compound `O=C(C=P(c1ccccc1)(c1ccccc1)c1ccccc1)C12CC3CC(CC(C3)C1)C2`, the TGI in [1] came to 37.6 µM; in [2] it was 39.9 µM; in test [3], 29.5 µM; in [4], 31.8 µM; in [5], 32.3 µM; in [6] it was 39.3 µM. The TGI came out at 34.5 µM in test [8], 29.1 µM in test [9] and 26.7 µM in [10].

Turning to `CCOC(=O)NNC(=O)NCCNC(=O)NNC(=O)OCC`, the TGI in test [1], in [2], in test [3], in [4], in test [6] and in [7] was over 100 µM throughout. For the same compound, the TGI in [8], in test [9] and in test [10] was over 100 µM throughout.
